Measured values taken from the NIST ThermoML archive (doi:10.1016/j.fluid.2009.06.002).

Details: Liquid; for mass density / viscosity: 298.15 K; for mass density: 101.33 kPa; for vapor or sublimation pressure: Twin ebulliometer

C1C[C@@H]2[C@H]3CC[C@H](C3)[C@@H]2C1 [exo-tetrahydrodicyclopentadiene]
Details	mass density [kg/m3]	vapor or sublimation pressure [kPa]	viscosity [mPa·s]
–	931.4	–	2.739
393 K	–	14.8	–
397.64 K	–	17.5	–
402.29 K	–	20.7	–
406.93 K	–	24.2	–
411.57 K	–	28.2	–
416.21 K	–	32.7	–
420.86 K	–	37.8	–
425.5 K	–	43.3	–
430.14 K	–	49.5	–
434.79 K	–	56.3	–
439.43 K	–	63.8	–
444.07 K	–	72	–
448.71 K	–	80.9	–
453.36 K	–	90.6	–
458 K	–	101.1	–

COC(=O)OC [dimethyl carbonate]
Details	mass density [kg/m3]	vapor or sublimation pressure [kPa]	viscosity [mPa·s]
–	1063.4	–	0.578
310 K	–	12.17	–
313.86 K	–	14.7	–
317.71 K	–	17.65	–
321.57 K	–	21.05	–
325.43 K	–	24.96	–
329.29 K	–	29.43	–
333.14 K	–	34.51	–
337 K	–	40.26	–
340.86 K	–	46.73	–
344.71 K	–	53.99	–
348.57 K	–	62.11	–
352.43 K	–	71.13	–
356.29 K	–	81.14	–
360.14 K	–	92.2	–
364 K	–	104.4	–
